In one experiment the test system is UAE-1. Particulars: cited from earlier work.
The next experiment deals with gp140. The following applies: subcutaneous booster in monkeys first immunized with Hub-TGDK-UPA-CpGODN-gp140-Fetuin, after anti-gp140 titer had decreased (about one year and a half). From the text: The resulting modified gene of SIVmac239 Env was transferred into simian Vero cells and a monomer and a trimer of SIVmac239 Env gp140 were constructed.

These results are taken from US20150024001A1, “MOLECULAR MIMIC MUCOSAL AIDS VACCINE” (priority 2011, published 2015).

As for `NCCNC(=O)[C@H](CCCCNC(=O)[C@H](CCCCNC(=O)c1cc(O)c(O)c(O)c1)NC(=O)c1cc(O)c(O)c(O)c1)NC(=O)[C@H](CCCCNC(=O)c1cc(O)c(O)c(O)c1)NC(=O)c1cc(O)c(O)c(O)c1` [TGDK, N^2,N^6-bis[N^2,N^6-bis(3,4,5-trihydroxybenzoyl)-L-lysyl]-N-(2-aminoethyl)-L-lysine amide], in the experiment with UAE-1, the “mode of inhibition of UAE-1” value is “competitive inhibitor”.

With Fetuin, the “production of anti-gp140 antibodies after booster” value with gp140 is recorded as “production of anti-gp140 antibodies was confirmed”.
